Experimental data reported in PubChem BioAssay AID2020 (NMMLSC, 2009).
Activity calls are given as the source filed them.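 Rule for the calls: active = EC50 at or below 30 µM together with a response span of at least a set limit; inactive = the rest.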

Target: Cell division control protein 42 homolog (Homo sapiens) (UniProt P60953)
Assay: activated Cdc42 mutant GTP binding inhibitors, SAR follow-up, biochemical, pyrazoline analogs, multiplex bead flow cytometry, Ki (AID 2020)
Details: bead-based flow cytometry, Bodipy-FL-GTP binding; for Ki: measured here: Ki calculated from EC50

Sequence of Cell division control protein 42 homolog (Homo sapiens) (P60953 whole entry, looked up, change not shown): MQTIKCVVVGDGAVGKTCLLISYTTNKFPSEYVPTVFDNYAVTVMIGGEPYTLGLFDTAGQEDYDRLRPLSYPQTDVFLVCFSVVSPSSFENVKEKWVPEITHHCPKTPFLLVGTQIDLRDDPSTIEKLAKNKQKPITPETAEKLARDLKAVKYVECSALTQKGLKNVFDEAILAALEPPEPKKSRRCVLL

EC50 | Ki | SMILES
16800 nM | 2600 nM | NS(=O)(=O)c1ccc(N2N=C(c3ccccc3)CC2c2ccccc2)cc1 (configuration not stated)
inactive | 370 nM | COc1ccc(C2CC(c3ccc(C)cc3)=NN2c2ccc(S(N)(=O)=O)cc2)cc1 (configuration not stated)
inactive | 440 nM | COc1ccc(C2CC(c3ccc(Br)cc3)=NN2c2ccc(S(N)(=O)=O)cc2)cc1 (configuration not stated)
> 30000 nM (inactive) |  | COc1ccc(C2=NN(c3ccc(Cl)cc3)C(c3ccccc3F)C2)cc1 (configuration not stated)
